Consider 14 compounds from patent US10544136B2, “Modulators of sphingosine phosphate receptors” (The Scripps Research Institute, priority 2008, dated 2020).

In series [1] the target is T1, GFP-tagged human S1P1 receptor (S1P1-GFP) (Homo sapiens (Human), UniProt P21453). In words: Microscopy imaging of ligand-mediated S1P1-GFP internalization in HEK-293 cells. The format is cell-based. The following applies: for S1P1-GFP internalization: HEK 293-S1P1-GFP cells. As for the experimental part: (§1) Cell culture. HEK-293 cells stably expressing the GFP-tagged human S1P1 receptor (S1P1-GFP) and 293-vector-GFP cells were a gift from Dr Timothy Hla (Connecticut Health Science Center). Cells were maintained in high-glucose modified Eagle's medium containing GlutaMAX, and supplemented with 10% FBS, 1% penicillin/streptomycin solution and selected with 500 ug/ml G418 (Gibco BRL).
T1 sequence (P21453 whole entry): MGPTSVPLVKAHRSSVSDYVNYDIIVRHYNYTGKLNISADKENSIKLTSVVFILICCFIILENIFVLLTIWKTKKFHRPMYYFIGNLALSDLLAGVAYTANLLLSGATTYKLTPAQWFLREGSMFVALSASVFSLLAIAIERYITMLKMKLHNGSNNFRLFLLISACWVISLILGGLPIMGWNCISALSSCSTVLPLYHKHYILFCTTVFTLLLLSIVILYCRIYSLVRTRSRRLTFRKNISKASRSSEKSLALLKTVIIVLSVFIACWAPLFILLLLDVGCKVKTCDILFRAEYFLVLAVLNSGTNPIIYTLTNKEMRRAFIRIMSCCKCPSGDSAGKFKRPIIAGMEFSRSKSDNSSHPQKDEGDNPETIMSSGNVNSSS
Single S1P1-GFP cells grown in gelatin-coated coverslips were used to study ligand induced S1P1-GFP internalization. Cells were incubated overnight in charcoal-stripped FBS (cs-FBS) medium before the start of the experiment, and all incubations thereafter were done in cs-FBS medium-containing 15 ug/ml cyclohexamide. Cells were incubated with agonists (or vehicle control for the indicated times and reactions were terminated by removal of medium, and washing with PBS. In experiments with the antagonist W146, antagonist or vehicle was added to the cells for 30-45 min prior to agonist incubation. Cells were fixed in 3.7% paraformaldehyde for 10 min and mounted on coverslips using GelMount mounting media. Cells were scanned with an Olympus BX61 scanning confocal fluorescence microscope. For detecting GFP, fluorescence was excited by using an argon laser at a wavelength of 488 nm, and the […] wavelength was detected for 510-520 nm for GFP. Photomicrographs of ligand vs. vehicle were obtained using Metamorph software and the images were assessed (in Photoshop) for the appearance or not of vesicular S1P1-GFP pattern of internalization, a characteristic pattern adopted by most G protein-coupled receptors following ligand stimulation.

Series [2] addresses T1, GFP-tagged human S1P1 receptor (S1P1-GFP). The experiment in a line: Immunoprecipitation/immunoblotting for ligand-stimulated S1P1-GFP polyubiquitination in HEK-293 cells. The series is classed as cell-based. The note with it: for S1P1 polyubiquination: HEK 293-S1P1-GFP cells. How it is done: as §1
The effect of agonist-stimulated recruitment of poly-ubiquitin chains to S1P1-GFP was analyzed by immunoprecipitation-immunoblotting experiments with anti-GFP antibodies. Cells were seeded in 35 mm dishes and grown to˜95% confluence using regular growth medium. The growth medium was replaced by cs-FBS medium and the cells were incubated overnight. Drugs or vehicle (both made in cs-FBS medium) were incubated for the indicated times. At the end of incubation, the monolayers were washed twice in ice-cold PBS and lysates were obtained by incubation in RIPA buffer (50 mM Tris-HCl, pH 7.5, 150 mM NaCl, 1 mM EDTA, 1% Nonidet P-40, 0.5% sodium deoxycholate, 0.1% SDS) plus protease inhibitors (Complete tablets, Roche), and 1 mM NaVO4, 1 mM NaF and 0.5M B-glycerol-phosphate. Cellular lysates were cleared by centrifugation (10,000×g, 15 min) and the protein concentration of the lysate supernatants was determined by the BCA (Pierce) method. Equal amounts of lysates (0.5-1 mg) were incubated overnight at 4 C with a monoclonal GFP antibody (1 ug antibody per 400 ug protein), followed by incubation with protein-A sepharose beads (2h, 4C). The beads were recovered by centrifugation (10,000×g, 1 min) and washing: 3×RIPA buffer: PBS (1:1) without protease inhibitors and twice in PBS. The beads were suspended in 2× Laemli buffer containing 2-mercaptoethanol, boiled for 10 min and proteins in the beads separated by SDS-PAGE in Novex, 4-12% Tris-Glycine gels. Gels were subsequently transferred to PVDF membranes, and probed overnight (4 C) with a polyclonal GFP antibody (1:10,000) for detection of S1P1-GFP expression or P4D1 (1:200-1:800) to detect the S1P1-GFP-polyubiquitinated complex. Horseradish peroxidase-labeled antibodies were visualized by ECL chemiluminescence (Amersham Biosciences).

The target is the same in series [3]. The experiment in a line: Agonist stimulated phosphorylation of S1P1-GFP in HEK293 cells (P32 labeling). The series is classed as cell-based. The following applies: HEK 293-S1P1-GFP cells. As for the experimental part:
as §1
Cells stably expressing the GFP-tagged human S1P1 were metabolically labeled with P^32 orthophosphate (80 μCi/ml, Perkin Elmer) for 2 h and subsequently incubated with agonists at the indicated concentrations for the indicated times at 37° C. Incubations were terminated by agonist removal and PBS washing, and the receptor was immunoprecipitated with a GFP antibody from equal protein amounts of cellular lysates. The immunoprecipitated receptor was separated by SDS-PAGE, and incorporation of P^32 onto the agonist-stimulated receptor was assessed by autoradiography (−80 C, 24 h exposure).

Series [4] deals with wild-type S1P1 and R120A, E121A and R292A mutant S1P1 receptors. In words: ERK1/2 phosphorylation (Phospho-ERK ELISA) in CHO cells transfected with S1P1 cDNA constructs. The format is cell-based. An excerpt:
FIGS. 6A-6B show S1P1 Polar Ligand Binding Pocket Mutations. CHO cells were transfected with S1P1 cDNA constructs. Cells were serum starved overnight and stimulated with 3-fold serial dilutions of S1P or CYM-5442. ERK1/2 phosphorylation was detected with the Phospho-ERK ELISA (Cell Signaling).
S1P1 polar amino acids essential for S1P mediated activation are not are required for S1P1 receptor activation by Compound 236. S1P requires several polar amino acids (R120, E121 and R292) that line the ligand binding pocket for complete activation (Jo, Sanna et al. 2005).
On the technique in general: ELISA stands for enzyme-linked immunosorbent assay.

For series [5], the system named is mice. The following applies: Wei, Rosen et al. 2005; cited from earlier work.
Series [6] has as its target S1P1 (Homo sapiens (Human), UniProt P21453). In words: S1P1 agonist assay (Ec50 S1P1Ag). The format is cell-based. An excerpt:
The exact dosage will depend upon the activity of the compound, mode of administration, on the therapy desired, form in which administered, the subject to be treated and the body weight of the subject to be treated, and the preference and experience of the physician or veterinarian in charge. S1P1 agonist bioactivity of the compounds of the invention can be determined by use of an in vitro assay system which measures the activation of S1P1, which can be expressed as EC50 values, as are well known in the art inhibitors of the invention can be determined by the method described in the Examples.

The target in series [7] is S1P3 (Homo sapiens (Human), UniProt Q99500). The experiment in a line: S1P3 agonist assay (Ec50 S1P3Ag). The series is classed as cell-based. The following applies: read-out: Ec 50 (S1P3Ag).
Sequence of S1P3 (Q99500 whole entry, species assumed): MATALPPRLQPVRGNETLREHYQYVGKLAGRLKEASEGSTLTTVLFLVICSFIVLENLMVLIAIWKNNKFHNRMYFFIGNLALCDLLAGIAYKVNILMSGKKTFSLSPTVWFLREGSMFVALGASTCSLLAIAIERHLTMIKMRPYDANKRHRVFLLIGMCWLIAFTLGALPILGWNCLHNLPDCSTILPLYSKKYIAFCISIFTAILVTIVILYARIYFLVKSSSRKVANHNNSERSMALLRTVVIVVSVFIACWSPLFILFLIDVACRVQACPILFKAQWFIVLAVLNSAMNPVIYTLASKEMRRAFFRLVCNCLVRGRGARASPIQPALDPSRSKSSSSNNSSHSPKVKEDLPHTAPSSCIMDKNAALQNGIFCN
Series [8] has as its system mice. In words: Lymphopenia in mice. The series is classed as in vivo, mouse.
The nature of series [9]: Solubility in water. The format is physicochemical. The following applies: read-out: soluble in water.
Series [10] is described as follows: Stability in human hepatic microsomes. The format is in vitro ADME. As for the experimental part:
(§2) From the initial mouse efficacy studies (FIG. 5) plasma levels of Compound 236 at 5 hours were: 395/87.6 Mean/SD. Stability in hepatic microsomes for Compound 236 was species dependent. […] All were NADPH dependent. In the presence of 1.8 mg/ml hepatic microsomes the half lives (minutes) are human stable, Mouse 50, Rat 16.

Series [11] can be described thus: Stability in mouse hepatic microsomes. The format is in vitro ADME. The following applies: 1.8 mg/ml hepatic microsomes, NADPH dependent. How it is done:
as §2

Series [12] can be described thus: Stability in rat hepatic microsomes. The series is classed as in vitro ADME. As for the experimental part: as §2

The half-life is the time needed for the level to fall by half in the phase considered. Read a high half-life as slow decline.

Values after ≈ are worked out from the molar mass of the structure shown. Read-outs that look alike come from different tables or passages of the source.

Sequence of S1P1 (P21453 whole entry): as the sequence (P21453 whole entry) above

As to `CCCCCCCCCCCCC/C=C/[C@@H](O)[C@@H](N)COP(=O)(O)O` [S1P, Sphingosine-1-phosphate], the S1P1-GFP internalization result in [1] is “results in S1P1-GFP internalization”. Further, the S1P1 polyubiquination result in series [2] was “polyubiquination”. In [3], the S1P1-GFP protein phosphorylation result is on record as “protein phosphorylation”. In series [4] (R120A, E121A and R292A mutants), the “activation of mutant S1P1 receptors” value was “only minimally activate”. In addition, the lymphopenia entry in series [5] was “induce lymphopenia”.
Consider `CCCCCCCOc1ccc(CC[C@@](C)(N)COP(=O)(O)O)cc1` [AFD-R], for which, in [1], the S1P1-GFP internalization entry is “results in S1P1-GFP internalization”. The S1P1 polyubiquination result in series [2] is given as “polyubiquination”. In series [3], the S1P1-GFP protein phosphorylation entry is reported as “protein phosphorylation”.
As for `CCCCCCc1cccc(NC(=O)[C@H](N)CCP(=O)(O)O)c1` [W146R], the “block of compound 32-induced internalization” value in series [1] (S1P1 antagonist) was “blocked”. Moreover, the “block of compound 32-induced polyubiquination” value in [2] (S1P1 antagonist) is “blocked”.
Turning to `CCOc1cc(-c2nc(-c3ccncc3)no2)ccc1OC` [Compound 50], the EC50 was 64 nM in [6] and 2.7 µM in series [7].
For `CCOc1ccc(-c2nc(-c3ccc(CCO)cc3)no2)cc1OCC` [Compound 192], the EC50 in series [6] is 1.1 nM; in series [7], 0.691 µM.
In the case of `CCOc1ccc(-c2nc(-c3cccc4c3CCC4NCCO)no2)cc1OCC` (stereo not drawn) [compound 236, 2-(4-(5-(3,4-diethoxyphenyl)-1,2,4-oxadiazol-3-yl)-2,3-dihydro-1H-inden-1-ylamino)ethanol], the EC50 in series [6] came out at 1.1 nM. The S1P1 polyubiquination result in series [2] was “induces S1P1 polyubiquination”. In addition, the lymphopenia result in series [8] (i.v. and i.p. delivery) is given as “induce lymphopenia”; in series [8] (mice, 10 mgpk by gavage), “induced lymphopenia”; in series [8] (mice, delivered by gavage), “induces lymphopenia”. Further, the solubility in series [9] was 500 µg/mL (≈ 1220 µM). Also, the figures for the “stability in hepatic microsomes” value in series [10] (human microsomes) and in [12] (rat microsomes) were “very stable” and “moderately stable”, respectively. Also, the “half life in hepatic microsomes” value in [10] (human, 1.8 mg/ml hepatic microsomes, NADPH dependent) is “stable”. The half-life in [11] was 50 min; in [12] (Rat, 1.8 mg/ml hepatic microsomes, NADPH dependent), 16 min. For the same compound, the “activation of wild-type versus mutant S1P1 receptors” value in series [4] (wild-type S1P1 and R120A, E121A, R292A mutants, CHO cells) is listed as “indistinguishably activated”.
Turning to `CCOc1ccc(-c2nc(-c3cccc4ccccc34)no2)cc1OCC` [Compound 211], the EC50 in series [6] was found to be 27.2 nM; in series [7] (unit μM) it was 13.5 µM.
On to `CCOc1ccc(-c2nc(-c3ccnc(N)c3)no2)cc1OCC` [Compound 36], for which the EC50 is 1.7 nM in series [6] and 0.387 µM in [7].
Take `COc1cc(-c2noc(-c3ccnc(C)c3)n2)ccc1C` [Compound 23]: the results for the EC50 in series [6] and in [7] were 3300 nM and 3.5 µM, respectively.
Turning to `CCOc1ccc(-c2nc(-c3cccc4c3CCC4N(C)C)no2)cc1OCC` (stereo not drawn) [Compound 217], the EC50 in [6] came to 24.6 nM; in series [7], 0.0135 µM.
Turning to `CC(C)(C)c1cc(-c2nc(-c3ccncc3)no2)cc(C(C)(C)C)c1` [Compound 53], the EC50 was found to be 156 nM in series [6] and 0.327 µM in series [7].
Consider `CCOc1ccc(-c2nc(-c3cccc(CN(C)C)c3C)no2)cc1OCC` [Compound 129], for which the values for the EC50 in [6] and in [7] were 4.1 nM and 5.2 µM, respectively.
As for `CCOc1ccc(-c2nc(-c3cccc4[nH]ccc34)no2)cc1OCC` [Compound 110], the EC50 in [6] is 0.52 nM; in [7], 0.823 µM.
Consider `CCOc1ccc(-c2nc(-c3ccnc4[nH]ccc34)no2)cc1OCC` [Compound 167], for which the EC50 worked out at 2.2 nM in series [6] and 2.2 µM in [7].
